From patent US20240325469A1, “COMPOSITION FOR PREVENTION OR TREATMENT OF COGNITIVE DYSFUNCTION AND INTESTINAL DYSFUNCTION, COMPRISING LACTOBACILLUS PARACASEI NK112, CUSCUTA AUSTRALIS EXTRACT, AND CUSCUTA JAPONICA EXTRACT” (MTHERA PHARMA CO., LTD., priority 2021, published 2024)

Experiments:
Format in all cases: in vivo, mouse
[1] = tested on: male C57BL/6 mice administered with Escherichia coli; assay: Y-maze task, Escherichia coli-induced model; conditions: spontaneous alternation; E. coli model mice; donepezil 5 mg/kg
Method: In order to evaluate spatial cognitive ability, a Y-maze task was performed. In a Y-shaped maze that has a length of 40 cm, a width of 4 cm, and a height of 12 cm and is closed on all sides, three paths were designated as A, B, and C. Then, a mouse was placed in the center and observed for 8 minutes, and the total number of entries entered was recorded. If the mouse entered three different branches in turn, the alternation number was counted as 1. […] The alternation number is defined as entering all three in turn, and the calculation for evaluation of spatial cognitive function was performed using the following equation.
Spontaneous alternation (%)=(total number of alternation/(total number of entries-2))×100

[2] = tested on: male C57BL/6 mice administered with Escherichia coli; assay: Novel object recognition test (NORT), Escherichia coli-induced model; conditions: recognition index; E. coli model mice; donepezil 5 mg/kg
Method: The mouse was moved to the behavior observation room and acclimatized for 5 minutes. Thereafter, in a 3-minute exposure trial, two identical objects (1 set) were placed in a box 30 cm apart, and the time the mouse recognized the objects for 3 minutes was measured. […] The recognition index (%) is converted into the preference for new objects (time to recognize novel objects/total recognition time)×100.

[3] = tested on: male C57BL/6 mice administered with Escherichia coli; assay: Elevated plus maze (EPM) test, Escherichia coli-induced model; conditions: E. coli model mice; once a day for 5 days; NK112 samples 1×10^9 CFU, fluoxetine 1 mg/kg
Method: 5-week-old male C57BL/6 mice having a body weight of 19 to 21 g were divided into a normal group and an experimental group, with 6 mice per group, and acclimatized to the laboratory for 1 week, and then the experiment was performed. The experimental group was administered with Escherichia coli (1×10^9 CFU/mouse/day) orally once a day for 5 days, and the normal group was administered with physiological saline. […]
The elevated plus maze is an experimental apparatus to measure the level of anxiety, depression, or stress, etc. […] The movements of the mouse placed in the elevated plus maze were recorded in a room with a brightness of 20 lux and a video camera installed above.
Specifically, a C57BL/6 mouse was placed facing the open arm with its head in the exact center of the elevated plus maze, and the time and number of times it spent in the open arms and the enclosed arms for 5 minutes were measured. […]
Of the total experimental time, time spent in open arms (OT) was calculated as [time spent in open arms/(time spent in open arms+time spent in enclosed arms)]×100. Open arm entry (OE) was calculated as [open arm entry/(open arm entry+enclosed arm entry)]×100. […]

corticosterone in blood = assay: Corticosterone in blood, Escherichia coli-induced model; conditions: E. coli model mice; once a day for 5 days; NK112 samples 1×10^9 CFU, fluoxetine 1 mg/kg
Method: (§1) 5-week-old male C57BL/6 mice having a body weight of 19 to 21 g were divided into a normal group and an experimental group, with 6 mice per group, and acclimatized to the laboratory for 1 week, and then the experiment was performed. The experimental group was administered with Escherichia coli (1×10^9 CFU/mouse/day) orally once a day for 5 days, and the normal group was administered with physiological saline.
(§2) Thereafter, 1×10^9 CFU heat-treated lactic acid bacteria (heat-killed NK112), 1×10^9 CFU lactic acid bacteria lysate supernatant (NK112 cytoplasmic component), 1×10^9 CFU lactic acid bacteria lysate precipitate (NK112 cell wall component), or positive control group drug (fluoxetine 1 mg/kg) was administered once a day for 5 days, respectively.
In addition, the concentration of corticosterone in blood, which induces anxiety, in each mouse was also measured and shown in Table 2 below.

[4] = tested on: male C57BL/6 mice administered with Escherichia coli; assay: Forced swimming test (FST), Escherichia coli-induced model; conditions: E. coli model mice; once a day for 5 days; NK112 samples 1×10^9 CFU, fluoxetine 1 mg/kg
Method: as §1, §2
In the case of heat-treated lactic acid bacteria (heat-killed NK112), the precipitate obtained by centrifuging the lactic acid bacteria culture solution in MRS medium was suspended to 1×10^10 CFU/ml, and then heat-treated twice at 70° C. for 10 minutes each to prepare them. […]
A water tank with a height of 40 cm and a diameter of 20 cm was filled with water at a temperature of 25±1° C. to a height of 30 cm. […] The first 2 minutes were not measured as adaptation time, and the immobility time of the experimental animals was measured for the next 4 minutes. […]

[5] = tested on: male C57BL/6 mice administered with Escherichia coli; assay: Tail suspension test (TST), Escherichia coli-induced model; conditions: E. coli model mice; once a day for 5 days; NK112 samples 1×10^9 CFU, fluoxetine 1 mg/kg
Method: as §1
Thereafter, 1×10^9 CFU heat-treated lactic acid bacteria (heat-killed NK112), 1×10^9 CFU lactic acid bacteria lysate supernatant (NK112 cytoplasmic component), 1×10^9 CFU lactic acid bacteria lysate precipitate (NK112 cell wall component), or positive control group drug (fluoxetine 1 mg/kg) was administered once a day for 5 days, respectively. […]
According to the method of Steru et al. (Steru L, Chermat R, Thierry B, Simon P (1985) The tail suspension test: A new method for screening antidepressants in mice, Psychopharmacology, Vol. 85; pp. 367-370), A fixation apparatus was attached to the end of the mouse's tail about 1 cm, and then it was hung 50 cm away from the ground in a container with a diameter of 35 cm and a height of 50 cm. The immobility time of the experimental animals was measured for a total of 6 minutes.

Structure (SMILES) | Y-maze task (%) [1] [%] | NORT test (%) [2] [%] | EPM test (%, time spent in open arm) [3] [%] | Corticosterone in blood (corticosterone in blood) [ng/mL] | FST test (%, immobility time) [4] [%] | TST test (%, immbolity time) [5] [%]
COc1cc2c(cc1OC)C(=O)C(CC1CCN(Cc3ccccc3)CC1)C2 (stereo not drawn) [Donepezil, donepezil] | 63.2 | 62.2 | – | – | – | –
CNCCC(Oc1ccc(C(F)(F)F)cc1)c1ccccc1 (stereo not drawn) [Fluoxetine, fluoxetine] | – | – | 9.8 | 202.5 | 32.1 | 33.5
